The target of the experiment is T1, Human Top1 (HTop1) (Homo sapiens, UniProt P11387).
T1 construct: made in house; host or cells: Sf-9 insect cells infected with recombinant baculovirus (gift from Prof. J. J. Champoux)
T1 sequence (P11387 1-765): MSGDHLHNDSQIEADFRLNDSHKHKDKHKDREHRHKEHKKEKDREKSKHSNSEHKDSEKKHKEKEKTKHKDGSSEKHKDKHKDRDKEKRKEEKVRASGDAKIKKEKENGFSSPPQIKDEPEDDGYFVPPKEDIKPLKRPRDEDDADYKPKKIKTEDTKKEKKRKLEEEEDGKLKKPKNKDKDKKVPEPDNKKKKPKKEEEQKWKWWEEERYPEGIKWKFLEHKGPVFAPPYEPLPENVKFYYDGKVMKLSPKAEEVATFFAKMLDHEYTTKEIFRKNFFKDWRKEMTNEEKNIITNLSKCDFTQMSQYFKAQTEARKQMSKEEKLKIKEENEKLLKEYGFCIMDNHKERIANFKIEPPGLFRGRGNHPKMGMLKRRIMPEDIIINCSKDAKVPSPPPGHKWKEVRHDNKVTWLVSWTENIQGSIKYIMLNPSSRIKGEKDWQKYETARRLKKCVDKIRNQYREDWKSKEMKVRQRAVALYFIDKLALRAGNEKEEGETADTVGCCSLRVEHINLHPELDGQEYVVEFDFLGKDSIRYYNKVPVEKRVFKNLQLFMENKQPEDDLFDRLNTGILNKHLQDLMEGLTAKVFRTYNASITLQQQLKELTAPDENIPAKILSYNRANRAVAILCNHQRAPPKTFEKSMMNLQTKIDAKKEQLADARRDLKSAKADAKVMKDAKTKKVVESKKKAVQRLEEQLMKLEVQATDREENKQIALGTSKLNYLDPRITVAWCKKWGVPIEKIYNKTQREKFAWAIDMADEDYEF
Nature of the experiment: Plasmid DNA relaxation assay, HTop1. In kind it is biochemical. The conditions noted are these: averages of three experiments, read-out: HTop1 inhibition (EC50). As for the experimental part:
To investigate the inhibitory effect of our library compounds on the DNA relaxation activity of the recombinant Human and Leishmania topoisomerase 1 (Table 2), assays were performed involving supercoiled plasmid DNA, the enzymes (HTop1 and LdTop1) and our molecules. The enzymes were purified by the standard literature procedure.
The type I DNA topoisomerase are assayed by decreased mobility of the relaxed isomers of supercoiled pBS (SK^+) [pBlue-script (SK^+)] DNA in agarose gel. The relaxation assay was carried out as described previously with LdTop1B and HTop I, diluted in the relaxation buffer (25 mM Tris–HCl, pH 7.5, 5% glycerol, 0.5 mM DTT, 10 mM MgCl2, 50 mM KCl, […] and […] BSA) and supercoiled plasmid pBS (SK^+) DNA (85–95% were negatively supercoiled, with remainder being nicked circles)[9][28][29]. The reconstituted enzyme LdTop1B was assayed at 50 mM KCl concentration as described before. For all kinetic studies, the reaction mixtures containing the buffer and DNA were heated to 37 °C before addition of the enzymes. The reactions were rapidly quenched using stop solution and kept on ice. The gels were stained with ethidium bromide (EtBr) ([…]) and the amount of supercoiled monomer DNA band fluorescence were quantified by integration using Gel Doc 2000 under UV illumination (Bio-Rad Quantity One Software), as described previously.
The wild-type HTop1 (91 kDa) was purified from Sf-9 insect cells infected with the recombinant baculovirus (a kind gift from Prof. J. J. Champoux). Approximately, 1 * 10^9 Sf-9 cells were infected with the recombinant virus, and cells were harvested after 48-h of infection. The cells were lysed and enzyme was purified as described. Briefly, at 48 h post-infection, approximately 3 * 10^9 Sf-9 cells were harvested by centrifugation for 5 min at 400 * g. The cells were resuspended in 1 liter of ice-cold phosphate-buffered saline and centrifuged for 5 min at 400 * g. The nuclei were washed twice in 80 ml of lysis buffer minus Triton X-100 and resuspended in 40 ml of resuspension buffer (50 mM KCl, 10 mM Tris-Cl, pH 7.5, 2 mM MgCl2, 25 mM DTT, 0.4 mg/ml phenylmethylsulfonyl fluoride, 0.12 mg/ml aprotinin). The nuclear extract was stirred for 5 min at ~200 rpm. With continued stirring, 50 ml of polyethylene glycol (PEG) buffer (18% PEG 8000, 1 M NaCl, 10% glycerol) was added dropwise in order to precipitate the DNA. The PEG precipitate was pelleted by centrifugation and the resulting PEG supernatant was dialyzed against 4 liters of potassium phosphate buffer. The dialyzed PEG supernatant passed over a 10-ml bed volume of phosphocellulose (Whatman P11) equilibrated with PPB. The HTop1 flowed through the PS column and then passed over a Mono Q column followed by loaded onto a Mono S column. The Mono S column was eluted with a 25-ml 50–200 mM KPO4, pH 7.4, gradient. […] The peak Mono S fractions were pooled, concentrated with an Amicon ultrafiltration cell, dialyzed into storage buffer (50% glycerol, 10 mM Tris-hydrochloride, pH 7.5, 1 mM DTT, 1 mM EDTA), and stored at −20 °C.

What is called EC50 is the concentration that produces a half-maximal response.

Where only a bound is given, the exact number is not on record here.

As to `Cc1cc2c(c(=O)[nH]1)C(=O)O/C2=C\c1ccc(O)c(O)c1` [Compound 4], the concentration giving a half-maximal response (EC50) was > 100 µM.

The values above are taken from paper PMC4879574, “Identification of Leishmania donovani Topoisomerase 1 inhibitors via intuitive scaffold hopping and bioisosteric modification of known Top 1 inhibitors” (Scientific Reports, 2016).
